According to patent US12492193B2, “Pyrazole derivatives for the treatment of cystic fibrosis” (Fondazione Istituto Italiano Di Tecnologia, priority 2017, dated 2025):

Target: T1, mutant CFTR (Homo sapiens, UniProt P13569, DEL508-508)
T1 construct: expressed in transfected cells
Assay: Fluorescence (HS-YFP) assay for CFTR activity, corrector assay
Format: cell-based
Settings: CFBE41o- and FRT cells with stable expression of mutant CFTR, 24 h compound treatment
Protocol: Fluorescence Assay for CFTR Activity
Mutant CFTR activity was determined with the functional assay based on the halide-sensitive yellow fluorescent protein, HS-YFP (Galietta et al., FEBS Lett 499: 220-224, 2001). CFBE41o- and FRT cells with stable expression of mutant CFTR and HS-YFP were plated on clear-bottom 96-well black microplates (Code 3603, Corning Life Sciences) at a density of 50,000 cells/well and kept at 37° C. in 5% CO2 for 24 hours. For the corrector assay, cells were treated for further 24 hours with test compounds, vehicle (DMSO), or the positive control VX-809. After treatment, the culture medium was removed and cells in each well were stimulated for 30 min at 37° C. with 60 μL PBS (containing 137 mM NaCl, 2.7 mM KCl, 8.1 mM Na2HPO4, 1.5 mM KH2PO4, 1 mM CaCl2, and 0.5 mM MgCl2) plus forskolin (20 μM) and genistein (50 μM).
For determination of potentiator activity on G551D-CFTR or G1349D-CFTR, cells were directly stimulated with forskolin plus test compound without previous incubation at low temperature. At the time of assay, microplates carrying CFBE41o- or FRT cells were transferred to microplate readers (BMG Labtech) equipped with high-quality excitation (HQ500/20X: 500±10 nm) and emission (HQ535/30M: 535±15 nm) filters for YFP (Chroma Technology). The assay consisted of a continuous 14 s fluorescence reading with 2 s before and 12 s after injection of an iodide-containing solution (165 μL of a modified PBS containing I^− instead of Cl^−; final I^− concentration in the well: 100 mM). Data were normalized to the initial background-subtracted fluorescence. Enhanced CFTR activity, induced by correctors and/or potentiators, results in accelerated I^− influx that in turn causes faster HS-YFP quenching (Pedemonte et al., Mol Pharmacol 68:1736-1746, 2005; Pedemonte et al., J Clin Invest 115:2564-2571, […]). To determine fluorescence quenching rate associated with I^− influx, the […] 10 s of data for each well were fitted with an exponential function to extrapolate initial slope (dF/dt).
EC50 obtained are illustrated in table 1 wherein +: EC50>2 μM; ++: 1.0 μM<EC50<2 μM; +++: EC50<1 μM.

T1 sequence (P13569 with tags, fused parts or gaps DEL508-508): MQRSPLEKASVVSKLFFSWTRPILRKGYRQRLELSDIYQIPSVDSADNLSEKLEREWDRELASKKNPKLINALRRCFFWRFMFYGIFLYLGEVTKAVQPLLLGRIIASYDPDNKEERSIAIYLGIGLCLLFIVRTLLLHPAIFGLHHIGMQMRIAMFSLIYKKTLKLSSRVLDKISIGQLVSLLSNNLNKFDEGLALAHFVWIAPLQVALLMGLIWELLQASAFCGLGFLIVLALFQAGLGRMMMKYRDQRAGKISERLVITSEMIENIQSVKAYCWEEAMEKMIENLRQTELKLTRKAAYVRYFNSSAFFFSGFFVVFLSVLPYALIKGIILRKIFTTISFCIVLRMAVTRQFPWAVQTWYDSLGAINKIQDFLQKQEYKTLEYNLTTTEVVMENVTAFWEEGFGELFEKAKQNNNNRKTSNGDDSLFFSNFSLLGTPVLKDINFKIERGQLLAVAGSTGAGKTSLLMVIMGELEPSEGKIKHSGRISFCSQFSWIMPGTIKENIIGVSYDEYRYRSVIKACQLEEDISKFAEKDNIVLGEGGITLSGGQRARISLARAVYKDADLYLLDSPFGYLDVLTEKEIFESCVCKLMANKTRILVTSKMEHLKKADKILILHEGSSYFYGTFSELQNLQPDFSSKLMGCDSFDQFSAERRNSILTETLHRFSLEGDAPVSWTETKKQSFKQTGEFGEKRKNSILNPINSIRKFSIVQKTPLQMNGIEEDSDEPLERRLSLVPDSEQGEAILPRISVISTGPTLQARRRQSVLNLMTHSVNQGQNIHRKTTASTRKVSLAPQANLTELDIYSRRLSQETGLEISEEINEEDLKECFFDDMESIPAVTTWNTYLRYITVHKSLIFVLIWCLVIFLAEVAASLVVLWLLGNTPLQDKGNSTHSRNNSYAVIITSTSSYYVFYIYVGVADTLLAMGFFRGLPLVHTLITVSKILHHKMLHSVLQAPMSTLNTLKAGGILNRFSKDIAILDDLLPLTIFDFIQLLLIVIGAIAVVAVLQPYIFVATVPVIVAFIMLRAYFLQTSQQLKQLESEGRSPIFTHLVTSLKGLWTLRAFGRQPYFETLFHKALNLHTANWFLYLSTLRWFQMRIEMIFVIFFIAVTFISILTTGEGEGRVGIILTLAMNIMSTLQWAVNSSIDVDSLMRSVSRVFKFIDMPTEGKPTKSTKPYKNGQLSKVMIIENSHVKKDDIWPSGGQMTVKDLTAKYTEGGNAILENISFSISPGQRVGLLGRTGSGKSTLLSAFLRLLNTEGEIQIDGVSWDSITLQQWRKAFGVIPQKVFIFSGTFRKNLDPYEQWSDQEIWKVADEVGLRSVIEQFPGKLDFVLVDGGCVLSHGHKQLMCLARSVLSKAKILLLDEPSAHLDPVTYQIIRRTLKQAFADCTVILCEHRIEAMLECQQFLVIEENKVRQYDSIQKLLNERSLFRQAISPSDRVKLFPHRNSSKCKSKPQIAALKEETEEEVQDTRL

Row | Structure (SMILES) | EC50 [nM]
1 | Cc1nn(-c2cccc(C(=O)N(C)c3cc4c(cc3Cl)OC(F)(F)O4)c2)c(C)c1Cl [compound 049, N-(6-Chloro-2,2-difluoro-1,3-benzodioxol-5-yl)-3-(4-chloro-3,5-dimethyl-pyrazol-1-yl)-N-methyl-benzamide] | < 1000
2 | Cc1nn(-c2cccc(C(=O)N(C)c3ccc4c(c3)OCO4)n2)c(C)c1Cl [compound 050, N-(1,3-Benzodioxol-5-yl)-6-(4-chloro-3,5-dimethyl-pyrazol-1-yl)-N-methyl-pyridine-2-carboxamide] | > 2000
3 | Cc1nn(-c2cccc(C(=O)Nc3ccc4oc(C(F)(F)F)nc4c3)c2)c(C)c1Cl [compound 054, 3-(4-Chloro-3,5-dimethyl-pyrazol-1-yl)-N-[2-(trifluoromethyl)-1,3-benzoxazol-5-yl]benzamide] | 1000 to 2000
4 | Cc1nn(-c2cccc(C(=O)N(C)c3ccc4oc(C5CC5)nc4c3)c2)c(C)c1Cl [compound 055, 3-(4-Chloro-3,5-dimethyl-pyrazol-1-yl)-N-(2-cyclopropyl-1,3-benzoxazol-5-yl)-N-methyl-benzamide] | 1000 to 2000
5 | Cc1nn(-c2cccc(C(=O)N(C)c3ccc4c(c3)OCO4)c2)c(C)c1C(N)=O [compound 056, 1-[3-[1,3-Benzodioxol-5-yl(methyl)carbamoyl]phenyl]-3,5-dimethyl-pyrazole-4-carboxamide] | > 2000
6 | Cc1nn(-c2cccc(C(=O)N(C)c3ccc4c(c3)COC4)c2)c(C)c1Cl [compound 057] | 1000 to 2000
7 | Cc1nn(-c2cccc(C(=O)N(C)c3ccc4c(c3)CCO4)c2)c(C)c1Cl [compound 058] | < 1000
8 | Cc1nn(-c2cccc(C(=O)N(C)c3ccc4c(c3)OCO4)c2)c(C)c1C(=O)NCCO [compound 059, 1-[3-[1,3-Benzodioxol-5-yl(methyl)carbamoyl]phenyl]-N-(2-hydroxyethyl)-3,5-dimethyl-pyrazole-4-carboxamide] | > 2000
9 | Cc1nn(-c2cccc(C(=O)N(C)c3ccc4oc(C(C)C)nc4c3)c2)c(C)c1Cl [compound 062, 3-(4-Chloro-3,5-dimethyl-pyrazol-1-yl)-N-(2-isopropyl-1,3-benzoxazol-5-yl)-N-methyl-benzamide] | > 2000

The remaining lines, values ahead:

Row | EC50 [nM] | Structure (SMILES)
10 | > 2000 | COc1nc2cc(N(C)C(=O)c3cccc(-n4nc(C)c(Cl)c4C)c3)ccc2o1 [compound 064, 3-(4-Chloro-3,5-dimethyl-pyrazol-1-yl)-N-(2-methoxy-1,3-benzoxazol-5-yl)-N-methyl-benzamide]
11 | > 2000 | Cc1cc(C(=O)O)n(-c2cccc(C(=O)N(C)c3ccc4c(c3)OCO4)c2)n1 [compound 065, 2-[3-[1,3-benzodioxol-5-yl(methyl)carbamoyl]phenyl]-5-methyl-pyrazole-3-carboxylic acid]
12 | > 2000 | Cc1cc(C(=O)O)nn1-c1cccc(C(=O)N(C)c2ccc3c(c2)OCO3)c1 [compound 066, 1-[3-[1,3-Benzodioxol-5-yl(methyl)carbamoyl]phenyl]-5-methyl-pyrazole-3-carboxylic acid]
13 | > 2000 | CCOC(=O)c1nn(-c2cccc(C(=O)N(C)c3ccc4c(c3)OCO4)c2)c(C)c1Cl [compound 067, Ethyl 1-[3-[1,3-benzodioxol-5-yl(methyl)carbamoyl]phenyl]-4-chloro-5-methyl-pyrazole-3-carboxylate]
14 | < 1000 | COc1cccc(N(C)C(=O)c2cccc(-n3nc(C)c(Cl)c3C)c2)c1 [compound 068, 3-(4-Chloro-3,5-dimethyl-pyrazol-1-yl)-N-(3-methoxyphenyl)-N-methyl-benzamide]
15 | > 2000 | Cc1c(Cl)c(C(=O)O)nn1-c1cccc(C(=O)N(C)c2ccc3c(c2)OCO3)c1 [compound 069, 1-[3-[1,3-Benzodioxol-5-yl(methyl)carbamoyl]phenyl]-4-chloro-5-methyl-pyrazole-3-carboxylic acid]
16 | > 2000 | Cc1cc(CO)n(-c2cccc(C(=O)N(C)c3ccc4c(c3)OCO4)c2)n1 [compound 070, N-(1,3-Benzodioxol-5-yl)-3-[5-(hydroxymethyl)-3-methyl-pyrazol-1-yl]-N-methyl-benzamide]
